According to ChEMBL document CHEMBL1201862, “PubChem BioAssay data set” (2004):
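48-hour exposure; five concentrations; linearly interpolated endpoints. GI50 marks 50% less growth.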 Activity calls are given as the source filed them. Rule as the data show it: active = GI50 up to about 1.1 µM and inactive = higher.

Key:
Assay in all cases: NCI tumour cell line growth inhibition, 48 h
CAKI-1 = system: CAKI-1
CCRF-CEM = system: CCRF-CEM
COLO 205 = system: COLO 205
EKVX = system: EKVX
HCT-15 = system: HCT-15
HOP-62 = system: HOP-62
K562 = system: K562
M14 = system: M14
MOLT-4 = system: MOLT-4
NCI-H460 = system: NCI-H460
NCI-H522 = system: NCI-H522
OVCAR-4 = system: OVCAR-4
OVCAR-5 = system: OVCAR-5
SF-539 = system: SF-539
SK-MEL-28 = system: SK-MEL-28
SK-MEL-5 = system: SK-MEL-5
SK-OV-3 = system: SK-OV-3
SN12C = system: SN12C
UACC-62 = system: UACC-62
HOP-92 = system: HOP-92

Measured: GI50

[O-][S+]1c2ccccc2N=C(c2ccc3ccccc3c2)CC1c1ccccc1F (stereo not given)
inactive: CAKI-1 > 100 µM | CCRF-CEM 67.8 µM | COLO 205 > 100 µM | EKVX > 100 µM | HOP-62 > 100 µM | K562 78.2 µM | M14 > 100 µM | MOLT-4 48.2 µM | NCI-H460 > 100 µM | NCI-H522 72.3 µM | OVCAR-4 > 100 µM | OVCAR-5 > 100 µM | SF-539 > 100 µM | SK-MEL-28 > 100 µM | SK-MEL-5 > 100 µM | SK-OV-3 > 100 µM | SN12C > 100 µM | UACC-62 > 100 µM
> 100 µM: HCT-15

C/C(Nc1ccc(F)cc1)=C1/CCOC1=O
inactive: CCRF-CEM > 100 µM | COLO 205 4.7 µM | EKVX > 100 µM | HOP-62 > 100 µM | HOP-92 > 100 µM | K562 62.8 µM | MOLT-4 24.5 µM | NCI-H460 > 100 µM | NCI-H522 > 100 µM | OVCAR-4 > 100 µM | SF-539 77.3 µM | SK-MEL-28 > 100 µM | SK-MEL-5 12.9 µM | SN12C > 100 µM
> 100 µM: HCT-15
active: UACC-62 0.277 µM

O=[N+]([O-])c1ccc(NSc2ccccc2)cc1
19.8 µM: HCT-15
inactive: CCRF-CEM 3.03 µM | COLO 205 30.7 µM | EKVX 30 µM | HOP-62 33.3 µM | HOP-92 28.7 µM | K562 23.6 µM | M14 20.5 µM | MOLT-4 10.8 µM | NCI-H460 18.3 µM | NCI-H522 17.2 µM | OVCAR-5 89.7 µM | SF-539 18.7 µM | SK-MEL-28 45.3 µM | SK-MEL-5 31.8 µM | SK-OV-3 29.9 µM | SN12C 17.2 µM | UACC-62 20.1 µM

COC(=O)N/N=C(\C)CC(=O)Nc1cccc([N+](=O)[O-])c1
inactive: CCRF-CEM > 100 µM | COLO 205 > 100 µM | EKVX > 100 µM | HOP-62 > 100 µM | HOP-92 > 100 µM | K562 > 100 µM | M14 > 100 µM | MOLT-4 > 100 µM | NCI-H460 > 100 µM | NCI-H522 > 100 µM | OVCAR-5 > 100 µM | SF-539 > 100 µM | SK-MEL-28 > 100 µM | SK-MEL-5 > 100 µM | SK-OV-3 > 100 µM | UACC-62 > 100 µM

COc1ccc(/N=N/C(=N/NC(=O)c2ccccc2)c2ccc(N(CCC#N)CCC#N)cc2C)cc1
26.1 µM: HCT-15
inactive: CAKI-1 > 100 µM | CCRF-CEM 36.7 µM | COLO 205 32.8 µM | EKVX 97.9 µM | HOP-62 51.6 µM | K562 19.5 µM | M14 50.5 µM | MOLT-4 49.5 µM | NCI-H460 23.1 µM | NCI-H522 10.7 µM | OVCAR-4 > 100 µM | OVCAR-5 > 100 µM | SF-539 19.3 µM | SK-MEL-5 18.2 µM | SK-OV-3 75.3 µM | SN12C 56.1 µM | UACC-62 38.5 µM

C/C=C/[C@@]1(OC(=O)c2ccccc2)C[C@@H]2CCCC[C@@H]21
inactive: CAKI-1 17.6 µM | CCRF-CEM 18.3 µM | EKVX 16.7 µM | HOP-62 15.5 µM | K562 19.8 µM | M14 17.9 µM | MOLT-4 17.9 µM | NCI-H460 18.4 µM | NCI-H522 15.7 µM | OVCAR-4 17 µM | OVCAR-5 17.1 µM | SF-539 17.5 µM | SK-MEL-28 17.9 µM | SK-MEL-5 15.9 µM | SK-OV-3 18.5 µM | SN12C 17.5 µM | UACC-62 16.7 µM
19.5 µM: HCT-15
